The target in one data set is T1, PR (Rattus norvegicus, UniProt Q63449).
T1 construct: expressed in transfected cells; host or cells: HEK-293
T1 sequence (Q63449 1-923): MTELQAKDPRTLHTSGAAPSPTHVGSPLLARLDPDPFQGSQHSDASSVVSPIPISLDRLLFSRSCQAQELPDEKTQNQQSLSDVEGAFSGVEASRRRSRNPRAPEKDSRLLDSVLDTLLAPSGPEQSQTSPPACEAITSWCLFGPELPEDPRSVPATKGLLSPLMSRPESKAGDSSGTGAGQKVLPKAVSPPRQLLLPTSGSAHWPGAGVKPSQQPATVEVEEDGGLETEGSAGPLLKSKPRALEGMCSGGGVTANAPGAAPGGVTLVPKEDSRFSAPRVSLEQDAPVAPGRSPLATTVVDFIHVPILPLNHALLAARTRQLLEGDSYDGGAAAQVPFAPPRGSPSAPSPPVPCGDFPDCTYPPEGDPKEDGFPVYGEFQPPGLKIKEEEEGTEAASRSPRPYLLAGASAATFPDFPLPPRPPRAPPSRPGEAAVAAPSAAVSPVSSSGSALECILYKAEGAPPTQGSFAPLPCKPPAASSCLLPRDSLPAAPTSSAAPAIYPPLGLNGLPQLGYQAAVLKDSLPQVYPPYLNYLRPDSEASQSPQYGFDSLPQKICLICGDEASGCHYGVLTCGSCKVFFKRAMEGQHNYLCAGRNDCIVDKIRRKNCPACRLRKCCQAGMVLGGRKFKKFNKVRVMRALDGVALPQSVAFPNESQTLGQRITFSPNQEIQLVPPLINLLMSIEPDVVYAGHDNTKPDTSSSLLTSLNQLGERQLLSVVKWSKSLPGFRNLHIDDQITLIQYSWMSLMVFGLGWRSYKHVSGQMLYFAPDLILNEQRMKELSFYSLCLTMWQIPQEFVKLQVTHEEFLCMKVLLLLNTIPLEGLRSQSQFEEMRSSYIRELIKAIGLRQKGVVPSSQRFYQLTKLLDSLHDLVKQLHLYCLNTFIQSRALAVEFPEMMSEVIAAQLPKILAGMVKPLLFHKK
Nature of the data set: Transient transfection luciferase transactivation assay in HEK-293 cells. In kind it is cell-based. Particulars: 1 nM.

The test system of data set [1] is orchidectomized (ORX) male Sprague-Dawley rats. Nature of the data set: Anabolic and androgenic activity in castrated (ORX) male rats. In kind it is in vivo, rat. The conditions noted are these: maximally stimulated. How it is done:
Anabolic and androgenic efficacy of compound of formula (I) administered by daily oral gavage were tested. The S-isomer of compound (I) [S-(I)] was synthesized and tested as described herein.
The test article for this study was weighed and dissolved in 10% DMSO (Fischer) diluted with PEG 300 (Acros Organics, NJ) for preparation of the appropriate dosage concentrations. The animals were housed in groups of 2 to 3 animals per cage. Animals were randomly assigned to one of seven groups consisting of 4 to 5 animals per group. Control groups (intact and ORX) were administered vehicle daily. S-(I) was administered via oral gavage at doses of 0.01, 0.03, 0.1, 0.3, 0.75, and 1 mg/day to both intact and ORX groups. Where appropriate, animals were castrated on day one of the study. Treatment with S-(I) began nine days post ORX and was administered daily via oral gavage for fourteen days.
The animals were sacrificed under anesthesia (ketamine/xyalzine, 87:13 mg/kg) and body weights were recorded. In addition, ventral prostate, seminal vesicles, and levator ani muscle were removed, individually weighed, normalized to body weight, and expressed as a percentage of intact control. Student's T-test was used to compare individual dose groups to the intact control group. Significance was defined a priori as a P-value <0.05. Ventral prostate and seminal vesicle weights were evaluated as a measure of androgenic activity, whereas levator ani muscle weight was evaluated as a measure of anabolic activity. Blood was collected from the abdominal aorta, centrifuged, and sera were frozen at −80° C. prior to determination of serum hormone levels. Serum luteinizing hormone (LH) and follicle stimulating hormone (FSH) concentrations were determined.

The test system of data set [2] is DMD (−/−) UTRN (−/−) mice. Nature of the data set: Double knockout mouse model of Duchenne muscular dystrophy. Particulars: 10 mg/kg/day, data cumulative across the SARM groups.
The target in a further data set is T2, CYP2C9 (Homo sapiens, UniProt P11712).
T2 construct: purchased Gentest, BD Biosciences
Nature of the data set: CYP inhibition screening, recombinant enzyme (fluorescent-based) assay. Particulars: human, 30 min. In kind it is in vitro ADME.

For the next data set, the target named is T3, MR (Rattus norvegicus, UniProt P22199).
T3 construct: expressed in transfected cells; host or cells: HEK-293
T3 sequence (P22199 1-981): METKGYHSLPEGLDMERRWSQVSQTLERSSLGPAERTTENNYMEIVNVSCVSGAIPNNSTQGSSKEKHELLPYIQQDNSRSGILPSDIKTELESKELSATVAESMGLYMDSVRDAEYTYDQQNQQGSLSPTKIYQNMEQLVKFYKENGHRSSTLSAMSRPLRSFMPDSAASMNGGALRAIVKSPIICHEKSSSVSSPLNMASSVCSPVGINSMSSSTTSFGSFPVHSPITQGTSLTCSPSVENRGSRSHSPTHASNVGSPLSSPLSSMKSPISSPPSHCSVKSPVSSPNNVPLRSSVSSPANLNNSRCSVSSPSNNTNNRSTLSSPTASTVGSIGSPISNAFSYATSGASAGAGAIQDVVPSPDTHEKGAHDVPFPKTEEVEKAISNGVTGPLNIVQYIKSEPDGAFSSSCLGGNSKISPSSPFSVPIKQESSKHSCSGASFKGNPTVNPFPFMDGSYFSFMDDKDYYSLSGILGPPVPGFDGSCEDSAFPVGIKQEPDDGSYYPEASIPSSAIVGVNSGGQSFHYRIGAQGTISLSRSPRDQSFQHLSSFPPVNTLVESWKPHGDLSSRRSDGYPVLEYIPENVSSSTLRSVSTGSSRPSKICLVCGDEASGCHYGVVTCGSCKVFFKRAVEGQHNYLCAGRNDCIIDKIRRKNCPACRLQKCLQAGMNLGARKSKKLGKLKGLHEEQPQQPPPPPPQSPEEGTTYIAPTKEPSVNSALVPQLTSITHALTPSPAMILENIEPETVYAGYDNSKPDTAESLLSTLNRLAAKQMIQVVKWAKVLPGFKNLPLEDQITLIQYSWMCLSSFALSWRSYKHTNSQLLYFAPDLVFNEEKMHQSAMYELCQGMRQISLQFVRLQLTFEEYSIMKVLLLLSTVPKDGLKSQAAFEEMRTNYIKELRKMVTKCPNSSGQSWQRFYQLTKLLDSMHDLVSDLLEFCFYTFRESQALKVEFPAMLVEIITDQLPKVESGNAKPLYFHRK
Nature of the data set: Transient transfection luciferase transactivation assay in HEK-293 cells. In kind it is cell-based. Particulars: 1 nM.

A further data set deals with T4, GR (Rattus norvegicus, UniProt P06536).
T4 construct: expressed in transfected cells; host or cells: HEK-293
T4 sequence (P06536 1-795): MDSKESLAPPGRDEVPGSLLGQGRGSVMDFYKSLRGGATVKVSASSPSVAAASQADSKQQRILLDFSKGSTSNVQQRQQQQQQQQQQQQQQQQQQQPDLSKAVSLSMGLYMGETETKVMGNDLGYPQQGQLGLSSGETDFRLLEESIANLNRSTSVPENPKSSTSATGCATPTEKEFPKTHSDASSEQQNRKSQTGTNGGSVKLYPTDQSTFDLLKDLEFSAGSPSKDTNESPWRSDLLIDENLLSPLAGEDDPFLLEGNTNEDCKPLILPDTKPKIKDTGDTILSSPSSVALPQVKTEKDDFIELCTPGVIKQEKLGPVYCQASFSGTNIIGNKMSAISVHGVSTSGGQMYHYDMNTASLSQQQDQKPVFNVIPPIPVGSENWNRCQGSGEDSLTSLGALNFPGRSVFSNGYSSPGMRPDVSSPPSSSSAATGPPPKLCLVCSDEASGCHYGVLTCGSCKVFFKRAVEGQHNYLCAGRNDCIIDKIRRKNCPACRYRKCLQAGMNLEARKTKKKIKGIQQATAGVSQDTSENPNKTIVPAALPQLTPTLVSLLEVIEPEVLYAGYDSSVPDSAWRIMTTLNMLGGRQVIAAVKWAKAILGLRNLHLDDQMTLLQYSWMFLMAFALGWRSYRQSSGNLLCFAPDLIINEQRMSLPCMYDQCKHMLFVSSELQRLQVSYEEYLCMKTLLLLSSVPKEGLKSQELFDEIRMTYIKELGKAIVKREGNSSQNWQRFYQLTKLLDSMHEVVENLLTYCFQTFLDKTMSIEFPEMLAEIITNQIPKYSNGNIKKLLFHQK
The description is as above. It is filed as cell-based. Particulars: 1 nM.

T2 sequence (P11712 whole entry): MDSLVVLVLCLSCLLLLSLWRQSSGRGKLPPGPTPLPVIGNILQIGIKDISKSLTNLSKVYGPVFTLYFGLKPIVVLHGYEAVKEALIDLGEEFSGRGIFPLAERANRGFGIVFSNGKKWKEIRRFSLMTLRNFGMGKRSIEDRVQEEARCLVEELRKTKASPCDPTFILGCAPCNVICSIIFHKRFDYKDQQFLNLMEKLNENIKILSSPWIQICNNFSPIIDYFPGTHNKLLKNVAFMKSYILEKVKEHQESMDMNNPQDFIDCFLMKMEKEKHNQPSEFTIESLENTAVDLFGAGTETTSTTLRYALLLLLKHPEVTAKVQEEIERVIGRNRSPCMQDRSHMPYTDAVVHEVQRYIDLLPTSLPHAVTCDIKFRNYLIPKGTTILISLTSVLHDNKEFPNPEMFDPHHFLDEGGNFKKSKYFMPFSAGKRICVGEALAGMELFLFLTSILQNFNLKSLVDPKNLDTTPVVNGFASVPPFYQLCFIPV

Regarding `CC#C[C@]1(O)CC[C@H]2[C@@H]3CCC4=CC(=O)CCC4=C3[C@@H](c3ccc(N(C)C)cc3)C[C@@]21C` [RU486, reference compound], at PR, the “Inhibition of PR activity, antagonist mode (in words)” value was “completely inhibited”.
`CC(=O)Nc1ccc(OC[C@](C)(O)C(=O)Nc2ccc([N+](=O)[O-])c(C(F)(F)F)c2)cc1` [S-4, S-3-(4-acetylaminophenoxy)-2-hydroxy-2-methyl-N-(4-nitro-3-trifluoromethylphenyl)propanamide, reference compound]: the “Maximal stimulation of levator ani muscle weight” value in data set [1] came to 101%.
As to `C[C@](O)(COc1ccc(C#N)cc1)C(=O)Nc1ccc(C#N)c(C(F)(F)F)c1` [S-(IV)], in data set [2], the “Ability to be ambulatory (in words)” value is “enhanced the ability of these mice to be ambulatory”, the “Deterioration of body weight (in words)” value is “delayed the deterioration”, the “Deterioration of grip strength (in words)” value is “delayed the deterioration” and the “Deterioration of lean mass (in words)” value is reported as “delayed the deterioration”.
`C[C@](O)(COc1ccc(C#N)c(F)c1)C(=O)Nc1ccc(C#N)c(C(F)(F)F)c1` [S-(V)]: in data set [2], the “Ability to be ambulatory (in words)” value is “enhanced the ability of these mice to be ambulatory”, the “Deterioration of body weight (in words)” value was “delayed the deterioration”, the “Deterioration of grip strength (in words)” value is listed as “delayed the deterioration” and the “Deterioration of lean mass (in words)” value is “delayed the deterioration”.
With `Nc1ccc(S(=O)(=O)Nc2ccnn2-c2ccccc2)cc1` [Sulfaphenazole, reference compound], the “Inhibition of CYP2C9 activity (in words)” value on CYP2C9 was “potently inhibited”.
As to `CCC(=O)O[C@H]1CC[C@H]2[C@@H]3CCC4=CC(=O)CC[C@]4(C)[C@H]3CC[C@]12C` [Testosterone propionate, reference compound], the “Maximal stimulation of levator ani muscle weight” value in data set [1] is recorded as 104%.
As for `C[C@]12CCC(=O)C=C1CC[C@@H]1[C@@H]2[C@@H](O)C[C@]2(C=O)[C@@H](C(=O)CO)CC[C@@H]12` [aldosterone, reference compound], the “MR activity induced by known ligand” value on MR worked out at 60 fold.
Consider `C[C@@H]1C[C@H]2[C@@H]3CCC4=CC(=O)C=C[C@]4(C)[C@@]3(F)[C@@H](O)C[C@]2(C)[C@@]1(O)C(=O)CO` [dexamethasone, reference compound], for which the “GR activity induced by known ligand” value on GR amounted to 70 fold.
Regarding `CC(=O)[C@H]1CC[C@H]2[C@@H]3CCC4=CC(=O)CC[C@]4(C)[C@H]3CC[C@]12C` [progesterone, reference compound], the “PR activity induced by known ligand” value at PR is recorded as 23 fold.

The values above are taken from US20180071242A1, “SUBSTITUTED ACYLANILIDES AND METHODS OF USE THEREOF” (University of Tennessee Research Foundation, priority 2006, published 2018).
